Measurements as given in patent publication US10881679B2, “Application of a phillyrin/phillygeninin composition in preparing a medicine or health care product for alleviating or/and treating viral diseases, and medicine or health care product for treating viral diseases” (priority 2014, dated 2021).
Marks after values point to notes of the source that are not given here.

Legend:
[1] = system: rat paw swelling induced by carrageenin; assay: Rat paw swelling induced by carrageenin; format: in vivo, Wistar rats; conditions: 100 mg/kg
Description: Each group has 10 rats. Rats in each group were all administered by […] through the sublingual vein. Normal volume of the right hind paw of each rat in each group was measured in capillary magnification measurement method. In order to avoid errors, the measurement should be carried out in a fixed position and operated by the same person before and after administration. A mean of the two measurement values was taken as the normal volume of the right hind paw of a rat before administration. […] The difference between the groups was compared by inter-group t test processing through the difference percentage (swelling ratio) of the paw volume before and after the induced rat inflammation. [formula] Results

[2] = system: rat fever induced by beer yeast; assay: Rat fever induced by beer yeast (Saccharomyces cerevisiae); format: in vivo, Wistar rats; conditions: 100 mg/kg i.g.
Description: Male Wistar rats with a weight of 180˜200 g were used. Normal anal temperature of each rat was measured twice (at a certain interval) with a WSC-411P portable digital thermometer, and a mean of the two measurement values was taken as a normal body temperature of the rat. Then, 300 rats with body temperature at 36.5˜38° C. were selected and randomly divided into 30 groups by weight: model groups (0.5% methyl cellulose), phillyrin/phillygeninin compositions A and B that are divided into low, medium and high dose groups (2.5, 5, 10 mg/kg) respectively, phillyrin groups (13 mg/kg), phillygeninin groups (13 mg/kg), and positive drug paracetamol groups (100 mg/kg). Each group has 10 rates, and the test is repeated 3 times for each group. 10 mL/kg of 10% fresh Saccharomyces cerevisiae suspension was subcutaneously injected to the back of the rats of each group to induce fever. After administration of 10% fresh Saccharomyces cerevisiae suspension for 6.0 h, the phillyrin/phillygeninin composition and the paracetamol positive drug were administered by intragastric administration, and the same volume of 0.5% methyl cellulose is administrated to the model group by intragastric administration. Rectal temperatures were respectively measured at 1, 2, 3 and 4 h after the administration. Changes in the body temperature were observed and difference between the groups was compared by inter-group t test processing through antipyretic percentage. The above test was repeated totally 3 times.

[3] = system: rabbit fever induced by typhoid and paratyphoid vaccine; assay: Rabbit fever induced by typhoid and paratyphoid vaccine; format: in vivo, Japanese big-ear white rabbits; conditions: 50 mg/kg i.g.
Description: Male Japanese big-ear white rabbits with a weight 1.5˜2.0 kg were used. Before the test, WSC-411P portable digital thermometer was used to measure the normal rectal temperature twice (with certain interval for each time), and the average value was taken as the normal body temperature of rabbits. […] Each group has 6 rabbits, and the test was repeated 3 times for each group. Rabbits were fixed into a fixator. The blank control group was intravenously injected with normal saline of 1 ml/kg via the ear margin; The model control group and each drug group were intravenously injected with typhoid and paratyphoid vaccines of 0.8 ml/kg via the ear margin. After the body temperatures of the rabbits increased by 1° C. or more (requiring about 1˜1.5 h, and this test was limited to 1 h), the blank control group and the model group were administered intragastrically with 0.5% carboxymethycellulose of 1 ml/kg, and the drug groups were administered intragastrically with phillyrin/phillygeninin compositions and paracetamol respectively. The rectal temperature was measured after administration for 30, 60, 90, 120, 180 and 240 min to observe the changes in the body temperature, and difference between the groups was compared by inter-group t test processing through antipyretic percentage.

[4] = system: sweat secretion of rat paws; assay: Sweat secretion of rat paws (coloring method); format: in vivo, Wistar rats; conditions: 35.0 mg/kg s.c.
Excerpt: The test is based on a mechanism that distribution of sweat glands is present in footpads of rat paws, the amount of sweat secretion and variation thereof can be observed by using a mechanism that a purple color can be produced by contacting iodine and starch when encountered with sweat.
500 Wistar rats with equal male and female number were used, weighing of 120˜150 g. These rats were randomly divided into 50 groups by weight and gender, i.e., namely 5 groups for the control groups (0.5% methyl cellulose), 5 groups for phillyrin groups, 5 groups for phillygeninin groups, 5 groups for the low, medium and high dose groups (2.5, 5, 10 mg/kg, respectively) of phillyrin/phillygeninin compositions A and B respactively, and 5 groups for the positive drug pilocarpine groups (35 mg/kg). Each group has 10 rats, 10 groups of rates are used for each test, which has 5 time periods (1, 5, 10, 15 and 20 min). The rats were placed into a self-made rat fixation bag, and both hind limbs of the rats were exposed. Dirt on the right paws was gently cleaned away using cotton swabs containing anhydrous alcohol. Pilocarpine solution was administered by subcutaneous injection, the remaining groups were subjected to intragastric administration. At 1 h (30 min for the pilocarpine group) after administration, pre-existing sweat and sweat generated due to struggle on the right paw of each rat in each group was gently wiped away with dry cotton swabs, then the paws were coated with solution A (dissolving 2 g iodine in 100 ml anhydrous alcohol) of Hetian-gaoyuanshi's reagent. After complete dryness, the paws were thinly coated with solution B (uniform mixture of 50 g soluble starch and 100 ml castor oil) of Hetian-gaoyuanshi's reagent. The color and number of dark purple coloring spots (i.e. sweat spots) were carefully observed at 1, 5, 10, 15 and 20 min after the coating of the solution B respectively with magnifying glass. After the test was completed, statistical treatment was performed according to the rank sum test with two-sample comparison, thereby comparing the differences among the various groups.

[5] = system: sweat gland epithelial cells of rat paws; assay: Sweat secretion of rat paws (histomorphological observation method); format: in vivo, Wistar rats; conditions: 35.0 mg/kg s.c., 30 min after administration
Excerpt: This test is based on a mechanism that when a rat is in an excited state, in addition to the increase of sweat secretion of sweat glands, the morphology of sweat gland epithelial cells changes accordingly. Under an optical microscope, it can be seen that the sweat gland epithelial cell vacuoles increase in number and expand. Under an electron microscope, such expanded vacuoles appear to be mitochondria in the sweat gland epithelial cell swelling, breakage and fusion and expansion of secretory vesicle. Therefore, through histomorphological observation of sweat gland epithelial tissue of a rat paw, secretory activities of the sweat gland can be known.
300 Wistar rats with equal male and female number, weighing 120˜160 g were used. These rats were randomly divided into 30 groups by weight and gender: control groups (0.5% of methyl cellulose), phillygeninin groups, phillyrin groups, low, medium and high dose groups (2.5, 5, 10 mg/kg) of phillyrin/phillygeninin compositions A and B separately, and positive drug pilocarpine groups (35 mg/kg). Each group has 10 rats, the test is repeated 3 times for each group. Pilocarpine solution was administered by subcutaneous injection, the remaining groups were subjected to intragastric administration. After administration of the 0.5% of methyl cellulose in the control group for one hour, after administration of the pilocarpine in the positive drug group for 30 min, and after administration of the phillyrin, the phillygeninin and the phillyrin/phillygeninin composition for one hour, the right hind limb was instantly cut off at the ankle joint to immediately take down the footpad of the right hind limb and placed into 10% of formaldehyde solution. The footpads were fixed, dehydrated, embedded, sliced and stained with HE by using conventional methods. Changes in sweat gland epithelial cells of the rat paws from each group were observed under an optical microscope, to mainly observe the percentage of vacuolization. The differences among the various groups was performed through X^2 test for statistical analysis. The above test was repeated 3 times. Percentage of vacuolization=(the number of vacuolized sweat glands)/(the number of sweat glands observed)×100%.

influenza virus [6] = format: in vivo, Kunming mice; conditions: 58.5 mg/kg/d i.g. 5 days
[7] = system: Herpes zoster simplex viruses type I (HSV-I); assay: Impact on virus-induced cytopathic effect in Vero cells (MTT): HSV-I; format: cell-based; conditions: HSV-I 100TCID50, Vero, 72 h; drug g/L as Table 1-2
adenovirus (ADV) = assay: Impact on virus-induced cytopathic effect in Vero cells (MTT): ADV; format: cell-based; conditions: ADV 100TCID50, Vero, 72 h; drug g/L as Table 1-2
enterovirus EV71 = assay: Impact on virus-induced cytopathic effect in Vero cells (MTT): EV71; format: cell-based; conditions: EV71 100TCID50, Vero, 72 h; drug g/L as Table 1-2
parainfluenza virus [8] = assay: Impact on virus-induced cytopathic effect in Vero cells (MTT): parainfluenza virus; format: cell-based; conditions: parainfluenza virus 100TCID50, Vero, 72 h; drug g/L as Table 1-2
influenza virus [9] = assay: Impact on virus-induced cytopathic effect in Vero cells (MTT): influenza virus; format: cell-based; conditions: influenza virus 100TCID50, Vero, 72 h; drug g/L (Table 1-2): phillyrin 0.01, Phillygeninin 0.02, compositions A, B 0.01, Ribavirin 0.70, oseltamivir phosphate 0.30
[10] = system: Coxsackievirus A16 (CoxA16); assay: Impact on virus-induced cytopathic effect in Vero cells (MTT): CoxA16; format: cell-based; conditions: CoxA16 100TCID50, Vero, 72 h; drug g/L as Table 1-2
[11] = system: respiratory syncytial virus (RSV); assay: Impact on virus-induced cytopathic effect in Vero cells (MTT): RSV; format: cell-based; conditions: RSV 100TCID50, Vero, 72 h; drug g/L as Table 1-2
[12] = system: Coxsackie virus B3 (CVB3); assay: Impact on virus-induced cytopathic effect in Vero cells (MTT): CVB3; format: cell-based; conditions: CVB3 100TCID50, Vero, 72 h; drug g/L as Table 1-2
parainfluenza virus [13] = format: in vivo, Kunming mice; conditions: 58.5 mg/kg/d i.g. 5 days
[14] = 10 min after coating solution B
[15] = 15 min after coating solution B
[16] = 20 min after coating solution B

CC(=O)Oc1ccccc1C(=O)O [Aspirin]
Swelling percentage (%) ([1]; 15 min after inflammation induction): 8.90 ± 6.70 %
Swelling percentage (%) ([1]; 30 min after inflammation induction): 15.6 ± 12.2 %
Swelling percentage (%) ([1]; 60 min after inflammation induction): 20.3 ± 10.9 %
Swelling percentage (%) ([1]; 120 min after inflammation induction): 21.6 ± 12.1 %
Swelling percentage (%) ([1]; 180 min after inflammation induction): 26.1 ± 21.1 %
Swelling percentage (%) ([1]; 240 min after inflammation induction): 26.1 ± 16.3 %
Swelling percentage (%) ([1]; 300 min after inflammation induction): 34.9 ± 14.6 %
Swelling percentage (%) ([1]; 360 min after inflammation induction): 31.9 ± 12.2 %

CC(=O)Nc1ccc(O)cc1 [Paracetamol]
Body temperature ([2]; 1 h after administration): 38.66 ± 0.59 °C
antipyretic percentage (%) ([2]; 1 h after administration): −2.07 ± 0.54 %
Body temperature ([2]; 2 h after administration): 38.19 ± 0.59 °C
antipyretic percentage (%) ([2]; 2 h after administration): −3.27 ± 0.77 %
Body temperature ([2]; 3 h after administration): 37.98 ± 0.19 °C
antipyretic percentage (%) ([2]; 3 h after administration): −3.80 ± 1.43 %
Body temperature ([2]; 4 h after administration): 37.84 ± 0.32 °C
antipyretic percentage (%) ([2]; 4 h after administration): −4.15 ± 1.59 %
Body temperature ([3]; 30 min after administration): 40.53 ± 0.65 °C
antipyretic percentage (%) ([3]; 30 min after administration): −1.14 ± 0.56%
Body temperature ([3]; 60 min after administration): 40.10 ± 0.49 °C
antipyretic percentage (%) ([3]; 60 min after administration): −2.18 ± 0.17%
Body temperature ([3]; 90 min after administration): 39.83 ± 0.58 °C
antipyretic percentage (%) ([3]; 90 min after administration): −2.83 ± 0.15%
Body temperature ([3]; 120 min after administration): 39.72 ± 0.56 °C
antipyretic percentage (%) ([3]; 120 min after administration): −3.11 ± 0.20%
Body temperature ([3]; 180 min after administration): 39.61 ± 0.41 °C
antipyretic percentage (%) ([3]; 180 min after administration): −3.38 ± 0.22%
Body temperature ([3]; 240 min after administration): 39.53 ± 0.47 °C
antipyretic percentage (%) ([3]; 240 min after administration): −3.58 ± 0.38%

CC[C@@H]1C(=O)OC[C@@H]1Cc1cncn1C [Pilocarpine]
Animal number of sweat spots of level + ([4]; 1 min after coating solution B): 1 rats
Animal number of sweat spots of level ++ ([4]; 1 min after coating solution B): 3 rats
Animal number of sweat spots of level +++ ([4]; 1 min after coating solution B): 1 rats
Animal number of sweat spots of level ++++ ([4]; 1 min after coating solution B): 5 rats
Animal number of sweat spots of level − ([4]; 1 min after coating solution B): 0 rats
Animal number of sweat spots of level + ([4]; 5 min after coating solution B): 1 rats
Animal number of sweat spots of level ++ ([4]; 5 min after coating solution B): 2 rats
Animal number of sweat spots of level +++ ([4]; 5 min after coating solution B): 1 rats
Animal number of sweat spots of level ++++ ([4]; 5 min after coating solution B): 6 rats
Animal number of sweat spots of level − ([4]; 5 min after coating solution B): 0 rats
Animal number of sweat spots of level + [4, 14]: 0 rats
Animal number of sweat spots of level ++ [4, 14]: 2 rats
Animal number of sweat spots of level +++ [4, 14]: 1 rats
Animal number of sweat spots of level ++++ [4, 14]: 6 rats
Animal number of sweat spots of level − [4, 14]: 0 rats
Animal number of sweat spots of level + [4, 15]: 0 rats
Animal number of sweat spots of level ++ [4, 15]: 2 rats
Animal number of sweat spots of level +++ [4, 15]: 1 rats
Animal number of sweat spots of level ++++ [4, 15]: 6 rats
Animal number of sweat spots of level − [4, 15]: 0 rats
Animal number of sweat spots of level + [4, 16]: 0 rats
Animal number of sweat spots of level ++ [4, 16]: 2 rats
Animal number of sweat spots of level +++ [4, 16]: 1 rats
Animal number of sweat spots of level ++++ [4, 16]: 6 rats
Animal number of sweat spots of level − [4, 16]: 0 rats
Number of sweat glands of vacuole [5]: 57
percentage of vacuolization (%) [5]: 27.40*** %

NC(=O)c1ncn([C@@H]2O[C@H](CO)[C@@H](O)[C@H]2O)n1 [Ribavirin]
Hemagglutination titer (InX) (influenza virus [6]): 21.91 ± 1.050
Inhibition rate (%) of hemagglutination titer (influenza virus [6]): 32.39%
antiviral effective rate (ER %) [7]: 62.92** %
antiviral effective rate (ER %) (adenovirus (ADV)): 0.43%
antiviral effective rate (ER %) (enterovirus EV71): 4.25%
antiviral effective rate (ER %) (parainfluenza virus [8]): 91.56** %
antiviral effective rate (ER %) (influenza virus [9]): 57.49** %
antiviral effective rate (ER %) [10]: 0.70%
antiviral effective rate (ER %) [11]: 50.08* %
antiviral effective rate (ER %) [12]: 13.44%
Hemagglutination titer (InX) (parainfluenza virus [13]): 23.22
Inhibition rate (%) of hemagglutination titer (parainfluenza virus [13]): 29.86%
